{"source": "paper PMC11783400", "about": "“Assessment of Potential Drug–Drug Interactions for Novel Oral Melanocortin‐1 Receptor Agonist Dersimelagon” (Pharmacology Research & Perspectives, 2025)", "key": {"[1]": {"target": "T1, CYP2C9 (Homo sapiens, UniProt P11712)", "T1 construct": "native enzyme in human liver microsomes", "T1 sequence (P11712 whole entry)": "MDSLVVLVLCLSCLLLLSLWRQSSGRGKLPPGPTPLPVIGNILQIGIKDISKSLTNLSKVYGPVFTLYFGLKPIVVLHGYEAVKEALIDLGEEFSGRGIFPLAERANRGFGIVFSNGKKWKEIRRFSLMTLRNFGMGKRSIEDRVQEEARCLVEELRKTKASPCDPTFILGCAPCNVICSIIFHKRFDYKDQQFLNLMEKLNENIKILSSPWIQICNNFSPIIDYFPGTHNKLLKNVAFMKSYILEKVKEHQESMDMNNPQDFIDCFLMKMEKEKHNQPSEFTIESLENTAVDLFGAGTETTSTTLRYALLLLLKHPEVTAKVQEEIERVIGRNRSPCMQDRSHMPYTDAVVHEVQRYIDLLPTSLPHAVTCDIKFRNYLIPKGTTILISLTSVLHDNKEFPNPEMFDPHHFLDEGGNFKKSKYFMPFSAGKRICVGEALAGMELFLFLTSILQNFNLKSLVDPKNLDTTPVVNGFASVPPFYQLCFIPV", "test": "CYP activity inhibition in human liver microsomes", "format": "biochemical", "from_the_text": "CYP activity inhibition in human liver microsomes on CYP2C9"}, "[2]": {"target": "T2, BCRP (breast cancer resistance protein) (Homo sapiens, UniProt Q9UNQ0)", "T2 construct": "gene ABCG2; endogenous transporter in Caco-2 cell monolayers", "T2 sequence (Q9UNQ0 1-655)": "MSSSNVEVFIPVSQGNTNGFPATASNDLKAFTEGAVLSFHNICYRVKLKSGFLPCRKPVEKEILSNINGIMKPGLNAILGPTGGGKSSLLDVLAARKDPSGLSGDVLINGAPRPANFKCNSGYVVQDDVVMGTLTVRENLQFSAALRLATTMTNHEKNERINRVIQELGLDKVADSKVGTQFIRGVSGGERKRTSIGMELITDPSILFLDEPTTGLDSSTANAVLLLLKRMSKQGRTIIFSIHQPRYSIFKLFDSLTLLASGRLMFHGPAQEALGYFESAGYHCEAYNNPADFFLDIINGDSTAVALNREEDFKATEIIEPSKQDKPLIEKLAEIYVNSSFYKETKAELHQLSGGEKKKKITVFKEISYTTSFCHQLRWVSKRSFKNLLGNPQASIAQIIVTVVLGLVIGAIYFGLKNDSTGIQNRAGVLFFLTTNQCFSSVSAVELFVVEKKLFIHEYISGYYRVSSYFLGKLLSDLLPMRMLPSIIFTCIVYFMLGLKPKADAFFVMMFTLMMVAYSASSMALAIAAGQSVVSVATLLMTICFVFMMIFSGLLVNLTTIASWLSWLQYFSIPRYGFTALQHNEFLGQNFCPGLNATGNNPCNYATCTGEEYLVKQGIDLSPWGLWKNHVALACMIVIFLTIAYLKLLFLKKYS", "test": "transport inhibition in Caco-2 monolayers", "format": "cell-based", "from_the_text": "transport inhibition in Caco-2 monolayers on BCRP (breast cancer resistance protein)"}}, "note": "pIC50, pKi: −log10 of the molar value.", "data": [{"smiles": "COC[C@H]1CN(C(=O)[C@]2(F)CN(C3CCCC3)C[C@H]2c2ccc(OC)cc2)C[C@@H]1c1ccc(C(F)(F)F)cc1N1CCC(C(=O)O)CC1", "note": "[dersimelagon]", "values": [{"measurement": "IC50", "setting": "[1]; read-out: IC50 (μM) / Direct inhibition", "value": 9.16, "unit": "µM"}, {"measurement": "pKi", "setting": "[1]; read-out: Parameters / K i", "value": 5.29}, {"measurement": "pIC50", "setting": "[2]", "value": 6.33}]}]}
